Data from the NIST ThermoML archive (doi:10.1007/s10765-008-0514-x).
“And” between values parts separate entries of the source, which are not always exact repeats. Equal entries are not always repeated. Numbers after ± are expanded uncertainties.

Experiment: cn = amount concentration of the nth substance listed, in mol/dm3
Settings: 101 kPa, Liquid, c1 = 2

| Compound | mass density (298.15 K) | speed of sound (298.15 K) | mass density (303.15 K) | speed of sound (303.15 K) | mass density (308.15 K) | speed of sound (308.15 K) | mass density (313.15 K) | speed of sound (313.15 K) | mass density (318.15 K) | speed of sound (318.15 K) | mass density (323.15 K) | speed of sound (323.15 K) |
| --- | --- | --- | --- | --- | --- | --- | --- | --- | --- | --- | --- | --- |
| [Cl-].[K+] [potassium chloride] + O | 1089.1 ± 1.7 kg/m3 | 1595.2 ± 3.3 m/s | 1087.5 ± 1.8 kg/m3 | 1605.9 ± 3.3 m/s | 1085.6 ± 1.9 kg/m3 | 1610.2 ± 3.3 m/s | 1083.4 ± 1.9 kg/m3 | 1616.4 ± 3.4 m/s | 1080.9 ± 2 kg/m3 | 1621.4 ± 3.4 m/s | 1078.3 ± 2.1 kg/m3 | 1626.5 ± 3.4 m/s |
| O=[N+]([O-])[O-].[K+] [potassium nitrate] + O | 1122.9 ± 1.8 kg/m3 | 1562 ± 3.3 m/s | 1120.6 ± 1.9 kg/m3 | 1569.4 ± 3.3 m/s | 1118 ± 1.9 kg/m3 | 1575.8 ± 3.3 m/s and 1575 ± 3.3 m/s | 1115 ± 2 kg/m3 | 1580 ± 3.3 m/s | 1111.8 ± 2.1 kg/m3 | 1584.6 ± 3.3 m/s and 1584.5 ± 3.3 m/s | 1108.2 ± 2.1 kg/m3 | 1588.9 ± 3.3 m/s and 1588.8 ± 3.3 m/s |
